pIC50: −log10 of the molar value. Counter-ions that a name gives are not always drawn. Like-named read-outs stand apart in the source and are kept apart here.
Legend:
[1] = tested on: Plasmodium berghei (Pb-Luc) exoerythrocytic-stage parasites; assay: microbe, parasite or virus in culture
[2] = tested on: P. falciparum 3D7 parasites; assay: Asexual erythrocytic-stage SYBR Green I proliferation assay, 1536-well; type: cell-based, Plasmodium falciparum; conditions: Plasmodium falciparum
[3] = tested on: Plasmodium cynomolgi exoerythrocytic-stage small (hypnozoites) and large (liver stage schizonts) parasites; assay: P. cynomolgi liver assay in primary hepatocytes; conditions: Plasmodium cynomolgi, Hepatocyte
[4] = tested on: Pb-Luc exoerythrocytic-stage parasites in Huh7.5.1 cells; assay: Pb-Luc time of action assay (modified 384-well luciferase assay); conditions: Plasmodium berghei
[5] = read-out: P. berghei (liver) IC50, Table S1, validation set of 50 antimalarials, Pb-Luc
[6] = 3D7, read-out: P. falciparum (blood) IC50, Table S1, validation set of 50 antimalarials
[7] = read-out: % inhibition normalized to untreated control, Large
[8] = read-out: % inhibition normalized to untreated control, Small
[9] = read-out: P. berghei (liver) IC50
[10] = 3D7, read-out: P. falciparum (blood) IC50

Row | SMILES | pIC50 [1, 5] | pIC50 [2, 6] | pIC50 [1, 9] | also measured
1 | Clc1ccc2c(N3CCN(CCCN4CCN(c5ccnc6cc(Cl)ccc56)CC4)CC3)ccnc2c1 [Piperaquine, reference compound] | < 4.90 | 7.14 | – | –
2 | COc1cc(NC(C)CCCN)c2ncccc2c1 (centres unmarked) [Primaquine, reference compound] | – | – | 6.15 | inhibition at 0.1 µM [3, 7]: 1%; inhibition at 1 µM [3, 7]: 3%; inhibition at 10 µM [3, 7]: 13%; inhibition at 0.1 µM [3, 8]: 4%; inhibition at 1 µM [3, 8]: 19%; inhibition at 10 µM [3, 8]: 24%; pIC50 [2, 10]: 6.16
3 | [H]/N=C(\N/C(=N/[H])Nc1ccc(Cl)cc1)NC(C)C [Proguanil HCL, reference compound] | 5.34 | 5.20 | – | –
4 | CCc1nc(N)nc(N)c1-c1ccc(Cl)cc1 [Pyrimethamine, reference compound] | 8.29 | 7.70 | – | pIC50 ([4]; Huh-7.5.1, read-out: Pb-Luc IC50, Treatment: 1): 6.91; pIC50 ([4]; Huh-7.5.1, read-out: Pb-Luc IC50, Treatment: 2): 7.68; pIC50 ([4]; Huh-7.5.1, read-out: Pb-Luc IC50, Treatment: 3): 6.60; pIC50 ([4]; Huh-7.5.1, read-out: Pb-Luc IC50, Treatment: 4): 7.71; pIC50 ([4]; Huh-7.5.1, read-out: Pb-Luc IC50, Treatment: 5): 7.73; pIC50 ([4]; Huh-7.5.1, read-out: Pb-Luc IC50, Treatment: 6): 7.72
5 | COc1ccc2nc3cc(Cl)ccc3c(Nc3cc(CN4CCCC4)c(O)c(CN4CCCC4)c3)c2n1 [Pyronaridine, reference compound] | 5.17 | 8.02 | – | –
6 | C=C[C@H]1C[N@@]2CC[C@H]1C[C@@H]2[C@@H](O)c1ccnc2ccc(OC)cc12 [Quinidine, reference compound] | < 4.90 | 8.54 | – | –
7 | C=C[C@H]1C[N@@]2CC[C@H]1C[C@H]2[C@H](O)c1ccnc2ccc(OC)cc12 [Quinine sulfate dihydrate, reference compound] | < 4.90 | 7.91 | – | –
8 | Cc1cc2nc3c(=O)[nH]c(=O)nc-3n(C[C@H](O)[C@H](O)[C@H](O)CO)c2cc1C [Riboflavin, reference compound] | < 4.90 | < 4.20 | – | –
9 | Nc1ccc(S(=O)(=O)Nc2ncccn2)cc1 [Sulfadiazine, reference compound] | – | < 4.20 | 7.80 | –
10 | COc1ncnc(NS(=O)(=O)c2ccc(N)cc2)c1OC [Sulfadoxine, reference compound] | 7.13 | < 4.20 | – | –
11 | COc1cc(C)c2c(Oc3cccc(C(F)(F)F)c3)c(OC)cc(NC(C)CCCN)c2n1 (centres unmarked) [Tafenoquine, reference compound] | 5.23 | 5.55 | – | –
12 | CN(C)[C@@H]1C(O)=C(C(N)=O)C(=O)[C@@]2(O)C(O)=C3C(=O)c4c(O)cccc4[C@@](C)(O)[C@H]3C[C@@H]12 [Tetracycline, reference compound] | – | < 5.00 | < 4.90 | –
13 | C=C(NC(=O)C(=C)NC(=O)c1csc(C2=N[C@@H]3c4csc(n4)[C@H]4NC(=O)c5csc(n5)[C@H]([C@](C)(O)[C@@H](C)O)NC(=O)[C@H]5CSC(=N5)/C(=C/C)NC(=O)[C@H]([C@@H](C)O)NC(=O)c5csc(n5)[C@]3(CC2)NC(=O)[C@H](C)NC(=O)C(=C)NC(=O)[C@H](C)NC(=O)[C@H]([C@@H](C)CC)N[C@@H]2C=Cc3c([C@H](C)O)cc(nc3[C@H]2O)C(=O)O[C@@H]4C)n1)C(N)=O [Thiostrepton, reference compound] | – | – | 5.50 | pIC50 [2, 10]: 5.72
